Measured values from publication PMC6511888, “Synthesis, Biological Evaluation, and Molecular Modeling Studies of New Thiadiazole Derivatives as Potent P2X7 Receptor Inhibitors” (Frontiers in Chemistry, 2019).

Key:
[1] = Stability in human liver microsomes; type: in vitro ADME; conditions: pH 7.4, read-out: LM stability human (CLint)
Method: Thiadiazole 9f stability was evaluated in liver microsomes from male mice and humans according to Faria et al. in 2018 (Faria et al., [2018]). Both solutions contained a final protein concentration of 0.5 mg/ml (0.1 M phosphate buffer) at pH 7.4. Microsomes were preincubated with 9f (1 μM) and DMSO ([…]) at 37°C before NADPH (1 mM) addition. A control for the reaction was a buffer containing 0.1 M phosphate at pH 7.4 in a final volume of 50 μl. Diazepam and verapamil were used as positive controls for mice and humans, respectively. Both types of microsomes were treated with 9f for 0, 5, 15, 30, and 45 min and the negative control [minus Nicotinamide adenine dinucleotide phosphate (NADPH)] for 45 min. To stop the reactions, methanol (50 μl) was added at the appropriate time points, and the samples were centrifuged (1,640 × g) for 20 min at 4°C to […] protein precipitation.
In vitro intrinsic clearance (CLint mic) for the metabolism of 9f in mouse and human liver microsomes was calculated using the equations below:
Half-life (t1/2) (minutes) = 0.693/k (1)
V(μL/mg) = volume of the incubation solution (μl)/protein in the incubation solution (mg) (2)
Intrinsic clearance (CLint) (μl/minutes/mg protein) = V × 0.693/t1/2 (3) according to the manufacturer's instructions.

Caco-2 cells = assay: Caco-2 cell permeability; type: in vitro ADME; conditions: compared to the controls and 9f and 11c
Method: Corning® Costar® Transwell plates (Sigma-Aldrich, St. Louis, MO, USA) were used for seeding Caco-2 cells at 3 × 10^5 cells/well bathed with DMEM supplemented with 10% FSB according to Faria and collaborator in 2018 (Faria et al., [2018]). This culture was maintained for up to 21 days in a humidified incubator at 37°C and 5% CO2. Thiadiazole analog, vinblastine (poor permeability control), and propranolol (high permeability control) stock solutions, all at a concentration of 100 mM, were prepared in Hanks' balanced salt solution (HBSS) containing 25 mM HEPES at pH 7.4 with 0.5% (v/v) DMSO. Transport buffer (0.3 ml) was added to each well to equilibrate the cells with the transport buffer. A 24-well enhanced recovery plate containing 1 ml of transport buffer (pH 7.4) was substituted for the feeder tray. The transport buffer in the apical wells was removed, and 0.3 ml of a solution containing thiadiazoles 9b, 9c, 9f, or 11c; vinblastine; or propranolol was added. Then, the cells were replaced for incubation for 60 min. Lucifer yellow concentrations in the donor and acceptor wells were measured in the last of this incubation. Lucifer yellow was measured using an M5 plate reader ([…]) at an excitation wavelength of 485 nm and an emission wavelength of 530 nm.

P2X2R = biological target: T1, P2X2R (Rattus norvegicus, UniProt P49653); assay: ATP-induced [Ca2+]i shifts in PC12 cells; type: cell-based
T1 construct: endogenous in cells; host or cells: PC12 cells
T1 sequence (P49653 1-472): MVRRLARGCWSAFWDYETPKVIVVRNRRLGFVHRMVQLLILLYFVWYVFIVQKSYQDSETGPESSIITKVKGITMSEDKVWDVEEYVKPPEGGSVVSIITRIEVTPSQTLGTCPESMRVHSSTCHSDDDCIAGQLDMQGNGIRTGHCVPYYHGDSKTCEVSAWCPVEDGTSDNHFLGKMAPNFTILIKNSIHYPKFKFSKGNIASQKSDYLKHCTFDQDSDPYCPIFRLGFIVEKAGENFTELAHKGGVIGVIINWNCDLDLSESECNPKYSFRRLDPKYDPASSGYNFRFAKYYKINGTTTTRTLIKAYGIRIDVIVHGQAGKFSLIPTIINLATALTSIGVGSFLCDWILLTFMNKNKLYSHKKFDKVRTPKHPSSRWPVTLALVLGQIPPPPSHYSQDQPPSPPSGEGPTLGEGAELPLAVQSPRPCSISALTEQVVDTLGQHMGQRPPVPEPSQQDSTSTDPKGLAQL
Method: (§1) Mouse peritoneal macrophages, PC12 cells, J774 cells, and HEPG2 cells were analyzed by fluorescence microscopy to measure the intracellular Ca^2+ concentrations ([Ca^2+]i). Cells were incubated with 2 μM Fura-2-AM (Molecular Probes) for 30 min, and the [Ca^2+]i mobilization was measured in the F340/F380 ratios with a FlexStation 3 multimode microplate reader (Molecular Devices). Cells were plated in translucent 96-well plates (BD Falcon) for 15 min and then washed and incubated in a saline solution with 150 NaCl, 5 KCl, 1 MgCl2, 1 CaCl2, and 10 HEPES (pH 7.4) for 30 min before measurements of [Ca^2+]i. The Ca^2+ influx was induced by stimulating cells with P2 receptor agonists. P2 receptor antagonists were added 10 min before P2 receptor agonist addition. […] Ionomycin was considered a positive control, and the other recordings were normalized in relation to the AUC.

P2X4R = biological target: T2, P2X4R (Rattus norvegicus, UniProt P51577); assay: ATP-induced [Ca2+]i shifts potentiated by ivermectin in NR8383 alveolar macrophage cell line; type: cell-based; conditions: 10 μM; NR8383 cells
T2 construct: endogenous in cells; host or cells: NR8383 rat alveolar macrophage cell line
T2 sequence (P51577 1-388): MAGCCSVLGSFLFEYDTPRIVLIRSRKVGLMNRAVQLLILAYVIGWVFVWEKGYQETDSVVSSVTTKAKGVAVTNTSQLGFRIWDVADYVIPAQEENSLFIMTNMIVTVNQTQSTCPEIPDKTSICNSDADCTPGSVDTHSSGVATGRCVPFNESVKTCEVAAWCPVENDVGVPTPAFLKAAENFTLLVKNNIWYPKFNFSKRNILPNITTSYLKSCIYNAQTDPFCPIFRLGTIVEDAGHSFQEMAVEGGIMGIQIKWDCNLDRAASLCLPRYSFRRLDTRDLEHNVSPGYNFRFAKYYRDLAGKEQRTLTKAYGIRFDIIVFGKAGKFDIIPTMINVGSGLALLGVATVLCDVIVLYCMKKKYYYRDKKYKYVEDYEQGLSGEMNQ

P2Y1R = biological target: T3, P2Y1R (Mus musculus, UniProt P49650); assay: ADP-induced [Ca2+]i shifts in mouse peritoneal macrophages; type: cell-based; conditions: concentration not given
T3 construct: endogenous in cells; host or cells: mouse peritoneal macrophages
T3 sequence (P49650 whole entry): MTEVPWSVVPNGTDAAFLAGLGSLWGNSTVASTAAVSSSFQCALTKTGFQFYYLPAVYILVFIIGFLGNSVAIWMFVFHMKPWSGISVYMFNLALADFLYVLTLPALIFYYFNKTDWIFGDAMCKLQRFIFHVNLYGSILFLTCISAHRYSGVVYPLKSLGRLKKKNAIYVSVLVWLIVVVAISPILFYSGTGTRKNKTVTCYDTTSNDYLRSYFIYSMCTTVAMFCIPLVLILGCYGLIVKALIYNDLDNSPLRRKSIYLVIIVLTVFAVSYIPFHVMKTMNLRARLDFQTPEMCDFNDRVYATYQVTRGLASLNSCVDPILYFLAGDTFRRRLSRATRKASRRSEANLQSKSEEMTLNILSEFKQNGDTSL
Method: as §1

P2Y2R = biological target: T4, P2Y2R (Mus musculus, UniProt P35383); assay: 2-S-UTP-activated [Ca2+]i shifts in mouse peritoneal macrophages; type: cell-based; conditions: concentration not given
T4 construct: endogenous in cells; host or cells: mouse peritoneal macrophages
T4 sequence (P35383 whole entry): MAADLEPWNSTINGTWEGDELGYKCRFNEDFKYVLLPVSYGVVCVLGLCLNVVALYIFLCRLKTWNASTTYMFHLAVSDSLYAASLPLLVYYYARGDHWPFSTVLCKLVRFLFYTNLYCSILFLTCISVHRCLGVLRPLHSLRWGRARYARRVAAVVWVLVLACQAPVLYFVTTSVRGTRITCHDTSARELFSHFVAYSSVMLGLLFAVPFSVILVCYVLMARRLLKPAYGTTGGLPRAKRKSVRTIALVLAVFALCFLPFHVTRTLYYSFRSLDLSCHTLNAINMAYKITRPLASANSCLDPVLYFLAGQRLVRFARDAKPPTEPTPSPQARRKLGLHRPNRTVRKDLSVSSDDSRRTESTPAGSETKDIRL
Method: as §1

P2Y4R = biological target: T5, P2Y4R (Mus musculus, UniProt Q9JJS7); assay: MRS4062-induced [Ca2+]i shifts in mice peritoneal macrophages; type: cell-based; conditions: concentration not given
T5 construct: endogenous in cells; host or cells: mouse peritoneal macrophages
T5 sequence (Q9JJS7 whole entry): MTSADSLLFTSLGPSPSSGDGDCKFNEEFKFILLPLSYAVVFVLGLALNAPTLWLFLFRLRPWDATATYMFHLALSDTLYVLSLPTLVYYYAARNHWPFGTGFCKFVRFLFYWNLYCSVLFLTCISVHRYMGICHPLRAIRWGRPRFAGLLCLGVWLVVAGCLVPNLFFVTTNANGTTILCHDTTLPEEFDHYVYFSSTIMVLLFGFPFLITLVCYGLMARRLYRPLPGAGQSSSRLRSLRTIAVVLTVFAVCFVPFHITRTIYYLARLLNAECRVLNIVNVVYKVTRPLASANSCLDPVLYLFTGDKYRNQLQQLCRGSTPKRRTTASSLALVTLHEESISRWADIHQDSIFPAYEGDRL
Method: as §1

P2Y6R = biological target: T6, P2Y6R (Mus musculus, UniProt Q9ERK9); assay: UDPβS-activated [Ca2+]i shifts in mouse peritoneal macrophages; type: cell-based; conditions: concentration not given
T6 construct: endogenous in cells; host or cells: mouse peritoneal macrophages
T6 sequence (Q9ERK9 whole entry): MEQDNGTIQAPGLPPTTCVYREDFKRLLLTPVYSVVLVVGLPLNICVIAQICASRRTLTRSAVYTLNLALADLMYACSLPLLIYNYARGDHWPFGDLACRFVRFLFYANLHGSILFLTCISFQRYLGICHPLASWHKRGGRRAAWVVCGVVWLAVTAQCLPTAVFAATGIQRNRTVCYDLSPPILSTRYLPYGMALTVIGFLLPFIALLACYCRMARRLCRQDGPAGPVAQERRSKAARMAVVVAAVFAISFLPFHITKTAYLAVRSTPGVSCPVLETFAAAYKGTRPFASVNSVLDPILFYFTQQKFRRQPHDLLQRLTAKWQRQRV
Method: as §1

P2Y11R = assay: NAADP-induced [Ca2+]i shifts in mouse peritoneal macrophages; type: cell-based; conditions: concentration not given
Method: as §1

P2Y12R = biological target: T7, P2Y12R (Mus musculus, UniProt Q9CPV9); assay: 2MeSADP-activated [Ca2+]i shifts in mouse peritoneal macrophages; type: cell-based; conditions: concentration not given
T7 construct: endogenous in cells; host or cells: mouse peritoneal macrophages
T7 sequence (Q9CPV9 whole entry): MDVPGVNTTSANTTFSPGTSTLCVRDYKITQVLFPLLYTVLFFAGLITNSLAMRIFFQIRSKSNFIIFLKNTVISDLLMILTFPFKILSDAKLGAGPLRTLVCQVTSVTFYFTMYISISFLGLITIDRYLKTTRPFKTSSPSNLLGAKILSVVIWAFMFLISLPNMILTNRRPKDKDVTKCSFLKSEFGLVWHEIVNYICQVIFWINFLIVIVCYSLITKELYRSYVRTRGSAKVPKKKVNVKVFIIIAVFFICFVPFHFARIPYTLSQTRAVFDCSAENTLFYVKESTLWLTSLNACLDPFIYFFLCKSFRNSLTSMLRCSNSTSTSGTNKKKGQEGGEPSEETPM

## N#Cc1cnn(-c2nnc(-c3ccccc3Cl)s2)c1N [Compound 9b]
[1]
  microsomal CLint at 1 μM: 26.4 µL/min/mg
Caco-2 cells
  Permeability in Caco-2 cells (in words): moderate permeability

## N#Cc1cnn(-c2nnc(-c3ccc(F)cc3)s2)c1N [Compound 9c]
[1]
  microsomal CLint at 1 μM: 18.6 µL/min/mg
Caco-2 cells
  Permeability in Caco-2 cells (in words): moderate permeability

## CCOC(=O)c1cnn(-c2nnc(-c3ccccc3Cl)s2)c1N [Compound 9f]
P2X2R; 100 μM
  Effect on ATP-induced [Ca2+]i shifts: did not inhibit
P2X4R
  Effect on ATP-induced [Ca2+]i shifts potentiated by 1 μM ivermectin: did not inhibit
P2Y1R
  Effect on ADP-induced [Ca2+]i shifts: did not inhibit
P2Y2R
  Effect on 2-S-UTP-activated [Ca2+]i shifts: did not have inhibitory effects
P2Y4R
  Effect on MRS4062-induced [Ca2+]i shifts: did not inhibit
P2Y6R
  Effect on UDPβS-activated [Ca2+]i shifts: did not show inhibitory activity
P2Y11R
  Effect on NAADP-induced [Ca2+]i shifts: did not inhibit
P2Y12R
  Effect on 2MeSADP-activated [Ca2+]i shifts: not inhibited
[1]
  microsomal CLint at 1 μM: 39.5 µL/min/mg

## Cc1cc(C)n(-c2nnc(-c3ccc(F)cc3)s2)n1 [Compound 11c, 2-(3,5-dimethyl-1H-pyrazol-1-yl)-5-(4-fluorophenyl)-1,3,4-thiadiazole]
[1]
  microsomal CLint at 1 μM: 46.7 µL/min/mg

## COc1ccc(CC(=O)NC(NC(=NC#N)Nc2cccc3ncccc23)C(C)(C)C)cc1OC (stereo not shown) [Compound A740003, N-(1-{[(cyanoimino)(5-quinolinylamino)methyl]amino}-2,2-dimethylpropyl)-2-(3,4-dimethoxyphenyl)acetamide]
P2X2R; 10 μM
  Effect on ATP-induced [Ca2+]i shifts: did not inhibit
P2X4R
  Effect on ATP-induced [Ca2+]i shifts potentiated by 1 μM ivermectin: did not inhibit
P2Y1R
  Effect on ADP-induced [Ca2+]i shifts: did not inhibit
P2Y2R
  Effect on 2-S-UTP-activated [Ca2+]i shifts: did not have inhibitory effects
P2Y4R
  Effect on MRS4062-induced [Ca2+]i shifts: did not inhibit
P2Y6R
  Effect on UDPβS-activated [Ca2+]i shifts: did not show inhibitory activity
P2Y11R
  Effect on NAADP-induced [Ca2+]i shifts: did not inhibit
P2Y12R
  Effect on 2MeSADP-activated [Ca2+]i shifts: not inhibited
